pEC50: −log10 of the molar value. Where “and” joins values, the source holds several entries; their conditions need not be identical. Equal values may be shown once. Read-outs that look alike come from different tables or passages of the source.

One assay has as its system SARS-CoV-2 replicon. Kind of assay: microbe, parasite or virus in culture. The assay is classed as cell-based.
The subject of assay [1] is human coronavirus (HCoV) 229E. The assay is described as follows: microbe, parasite or virus in culture. The assay is classed as cell-based, human coronavirus 229E.
Setting [2] is: Severe acute respiratory syndrome coronavirus 2, Huh-7, 24 h; read-out: Replicon EC50.
[3] abbreviates: unidentified human coronavirus, 72 h, MRCS cells, HCoV 229E, 3 days, CellTiter Glo, read-out: 229E CPE EC50.
[4] abbreviates: MRCS cells, HCoV 229E, 3 days, CellTiter Glo, read-out: 229E CPE EC50.

For the compound `CC(C)(C)OC(=O)N[C@H](C(=O)N1C[C@H]2[C@@H]([C@H]1C(=O)N[C@H](C#N)C[C@@H]1CCNC1=O)C2(C)C)C(C)(C)C` [Compound 12], the pEC50 in the assay with SARS-CoV-2 replicon (Severe acute respiratory syndrome coronavirus 2, Huh-7, 24 h, read-out: Replicon EC50) is 6.97; in the assay with SARS-CoV-2 replicon (read-out: Replicon EC50) it was 6.92; in assay [1] (unidentified human coronavirus, 72 h, read-out: 229E CPE EC50, MRCS cells, HCoV 229E, 3 days, CellTiter Glo), 6.07.
For the compound `CC(C)(C)[C@H](NC(=O)NC1(CS(=O)(=O)C(C)(C)C)CCCCC1)C(=O)N1C[C@H]2[C@@H]([C@H]1C(=O)N[C@H](C#N)C[C@@H]1CCNC1=O)C2(C)C` [Compound 16], the pEC50 in the assay on SARS-CoV-2 replicon (setting [2]) is 5.89; in the assay with SARS-CoV-2 replicon (read-out: Replicon EC50), 5.73 and 5.69; in assay [1] (setting [3]) it was 4.78.
Consider `CC(C)(C)[C@H](NC(=O)C(c1ccccc1)c1ccccc1)C(=O)N1C[C@H]2[C@@H]([C@H]1C(=O)N[C@H](C#N)C[C@@H]1CCNC1=O)C2(C)C` [Compound 18, (1R,2S,5S)—N—((S)-1-cyano-2-((S)-2-oxopyrrolidin-3-yl)ethyl)-3-((S)-2-(2,2-diphenylacetamido)-3,3-dimethylbutanoyl)-6,6-dimethyl-3-azabicyclo[3.1.0]hexane-2-carboxamide], for which the pEC50 in the assay on SARS-CoV-2 replicon (setting [2]) is 5.90; in the assay with SARS-CoV-2 replicon (read-out: Replicon EC50) it was 5.85; in assay [1] (setting [3]), 6.07.
On to `CC(C)(C)[C@H](NC(=O)C12CC(C1)C2)C(=O)N1C[C@H]2[C@@H]([C@H]1C(=O)N[C@H](C#N)C[C@@H]1CCNC1=O)C2(C)C` [Compound 20], for which the pEC50 in the assay on SARS-CoV-2 replicon (setting [2]) is 6.73; in the assay with SARS-CoV-2 replicon (read-out: Replicon EC50), 6.63; in assay [1] (setting [3]), 5.56.
Take `CC(C)(C)[C@H](NC(=O)[C@H]1CCO1)C(=O)N1C[C@H]2[C@@H]([C@H]1C(=O)N[C@H](C#N)C[C@@H]1CCNC1=O)C2(C)C` [Compound 22]: the pEC50 in the assay with SARS-CoV-2 replicon (setting [2]) was 5.52; in assay [1] (setting [3]) it was 4.72.
For `Cn1c(C(=O)N[C@H](C(=O)N2C[C@H]3[C@@H]([C@H]2C(=O)N[C@H](C#N)C[C@@H]2CCNC2=O)C3(C)C)C(C)(C)C)cc2ccccc21` [Compound 27], in that order: 6.02 and 6.02.
For `CC(C)(C)[C@H](NC(=O)c1cnc2[nH]ccc2c1)C(=O)N1C[C@H]2[C@@H]([C@H]1C(=O)N[C@H](C#N)C[C@@H]1CCNC1=O)C2(C)C` [Compound 32], in that order: 5.50 and 4.88.
As for `CC(C)(C)[C@H](NC(=O)C12CC(F)(C1)C2)C(=O)N1C[C@H]2[C@@H]([C@H]1C(=O)N[C@H](C#N)C[C@@H]1CCNC1=O)C2(C)C` [Compound 34], the pEC50 in the assay with SARS-CoV-2 replicon (setting [2]) was 6.57; in the assay on SARS-CoV-2 replicon (read-out: Replicon EC50) it was 6.52 and 6.38; in assay [1] (setting [3]), 6.27.
For the compound `CC(C)(C)[C@H](NC(=O)CC12CC(C1)C2)C(=O)N1C[C@H]2[C@@H]([C@H]1C(=O)N[C@H](C#N)C[C@@H]1CCNC1=O)C2(C)C` [Compound 40], the pEC50 is 6.57 in the assay on SARS-CoV-2 replicon (setting [2]); 6.49 and 6.44 and 6.41 in the assay with SARS-CoV-2 replicon (read-out: Replicon EC50); 5.49 in assay [1] (setting [4]); 5.51 in assay [1] (setting [3]).
Take `CC(C)(C)[C@H](NS(=O)(=O)c1ccc(F)cc1)C(=O)N1C[C@H]2[C@@H]([C@H]1C(=O)N[C@H](C#N)C[C@@H]1CCNC1=O)C2(C)C` [Compound 53, (1R,2S,5S)—N—((S)-1-cyano-2-((S)-2-oxopyrrolidin-3-yl)ethyl)-3-((S)-2-((4-fluorophenyl)sulfonamido)-3,3-dimethylbutanoyl)-6,6-dimethyl-3-azabicyclo[3.1.0]hexane-2-carboxamide]: the pEC50 with SARS-CoV-2 replicon (setting [2]) is 7.29; with SARS-CoV-2 replicon (read-out: Replicon EC50) it was 7.00; in assay [1] (setting [4]), 6.44; in assay [1] (setting [3]), 6.58.
For `CC(C)(C)[C@H](NS(=O)(=O)c1ccc(Cl)s1)C(=O)N1C[C@H]2[C@@H]([C@H]1C(=O)N[C@H](C#N)C[C@@H]1CCNC1=O)C2(C)C` [Compound 54], in that order: 7.27, 7.24, 6.90 and 6.97.
In the case of `CC(C)(C)[C@H](NC(=S)NC1CCCC1)C(=O)N1C[C@H]2[C@@H]([C@H]1C(=O)N[C@H](C#N)C[C@@H]1CCNC1=O)C2(C)C` [Compound 70], the pEC50 is 5.75 in the assay with SARS-CoV-2 replicon (setting [2]) and 5.30 in assay [1] (setting [3]).
For `CC(C)NC(=S)N[C@H](C(=O)N1C[C@H]2[C@@H]([C@H]1C(=O)N[C@H](C#N)C[C@@H]1CCNC1=O)C2(C)C)C(C)(C)C` [Compound 73], the pEC50 with SARS-CoV-2 replicon (setting [2]) is 6.85; in assay [1] (setting [3]), 5.88.
For `CC(C)(C)[C@H](NC(=S)Nc1ccccc1)C(=O)N1C[C@H]2[C@@H]([C@H]1C(=O)N[C@H](C#N)C[C@@H]1CCNC1=O)C2(C)C` [Compound 74], in that order: 6.31 and 4.94.
For `CC(C)(C)[C@H](NC(=O)C(F)(Cl)C(F)(F)F)C(=O)N1C[C@H]2[C@@H]([C@H]1C(=O)N[C@H](C#N)C[C@@H]1CCNC1=O)C2(C)C` (some centres unmarked) [Compound 75], the pEC50 in the assay on SARS-CoV-2 replicon (setting [2]) is 8.16; with SARS-CoV-2 replicon (read-out: Replicon EC50), 7.89; in assay [1] (setting [4]) it was 6.93; in assay [1] (setting [3]), 7.04.
For `CC(C)(C)[C@H](NC(=S)NC1CC1)C(=O)N1C[C@H]2[C@@H]([C@H]1C(=O)N[C@H](C#N)C[C@@H]1CCNC1=O)C2(C)C` [Compound 76], in that order: 6.42, 6.32, 5.12 and 5.20.
For `CN(C)C(=S)N[C@H](C(=O)N1C[C@H]2[C@@H]([C@H]1C(=O)N[C@H](C#N)C[C@@H]1CCNC1=O)C2(C)C)C(C)(C)C` [Compound 77], the pEC50 with SARS-CoV-2 replicon (setting [2]) is 5.39; in assay [1] (setting [3]) it was 4.67.
On to `CNC(=S)N[C@@H](CC1CCC1)C(=O)N1C[C@H]2[C@@H]([C@H]1C(=O)N[C@H](C#N)C[C@@H]1CCNC1=O)C2(C)C` [Compound 78], for which the pEC50 in the assay on SARS-CoV-2 replicon (setting [2]) was 5.73; in assay [1] (setting [3]), 4.90.
For `CC(C)(C)[C@H](NS(=O)(=O)c1cccc(F)c1)C(=O)N1C[C@H]2[C@@H]([C@H]1C(=O)N[C@H](C#N)C[C@@H]1CCNC1=O)C2(C)C` [Compound 79], the pEC50 in the assay with SARS-CoV-2 replicon (setting [2]) is 7.09; in the assay on SARS-CoV-2 replicon (read-out: Replicon EC50), 6.85; in assay [1] (setting [4]) it was 6.58; in assay [1] (setting [3]), 6.59.
For the compound `CC(C)(C)[C@H](NC(=O)C(F)(F)C(F)(F)Cl)C(=O)N1C[C@H]2[C@@H]([C@H]1C(=O)N[C@H](C#N)C[C@@H]1CCNC1=O)C2(C)C` [Compound 80], the pEC50 was 8.19 in the assay on SARS-CoV-2 replicon (setting [2]), 7.89 in the assay with SARS-CoV-2 replicon (read-out: Replicon EC50), 6.94 in assay [1] (setting [4]) and 7.04 in assay [1] (setting [3]).
Consider `CC(C)(C)[C@H](NC(=O)C12CC(C(F)(F)F)(C1)C2)C(=O)N1C[C@H]2[C@@H]([C@H]1C(=O)N[C@H](C#N)C[C@@H]1CCNC1=O)C2(C)C` [Compound 81], for which the results for the pEC50 (in the assay with SARS-CoV-2 replicon (setting [2]); in assay [1] (setting [3])) were 5.70 and 5.16, respectively.
As to `CC(C)(C)[C@H](NS(=O)(=O)c1ccc2c(c1)CCO2)C(=O)N1C[C@H]2[C@@H]([C@H]1C(=O)N[C@H](C#N)C[C@@H]1CCNC1=O)C2(C)C` [Compound 83], the pEC50 with SARS-CoV-2 replicon (setting [2]) is 7.36; in the assay with SARS-CoV-2 replicon (read-out: Replicon EC50), 7.14; in assay [1] (setting [4]), 5.97; in assay [1] (setting [3]) it was 6.08.
`C=CS(=O)(=O)N[C@H](C(=O)N1C[C@H]2[C@@H]([C@H]1C(=O)N[C@H](C#N)C[C@@H]1CCNC1=O)C2(C)C)C(C)(C)C` [Compound 84]: the pEC50 was 6.54 in the assay on SARS-CoV-2 replicon (setting [2]) and 6.04 in assay [1] (setting [3]).
As to `Cc1ccc(S(=O)(=O)N[C@H](C(=O)N2C[C@H]3[C@@H]([C@H]2C(=O)N[C@H](C#N)C[C@@H]2CCNC2=O)C3(C)C)C(C)(C)C)cc1` [Compound 96], the pEC50 in assay [1] (setting [4]) was 6.47; in assay [1] (setting [3]) it was 6.61.
Regarding `CC(C)(C)[C@H](NS(=O)(=O)c1cccs1)C(=O)N1C[C@H]2[C@@H]([C@H]1C(=O)N[C@H](C#N)C[C@@H]1CCNC1=O)C2(C)C` [Compound 100], the pEC50 in assay [1] (setting [4]) was 6.20; in assay [1] (setting [3]), 6.36.
For `CC(C)(C)[C@H](NS(=O)(=O)c1ccc2ccccc2c1)C(=O)N1C[C@H]2[C@@H]([C@H]1C(=O)N[C@H](C#N)C[C@@H]1CCNC1=O)C2(C)C` [Compound 102], in that order: 6.90 and 7.08.
For `CC(C)(C)[C@H](NS(=O)(=O)c1ccc(F)s1)C(=O)N1C[C@H]2[C@@H]([C@H]1C(=O)N[C@H](C#N)C[C@@H]1CCNC1=O)C2(C)C` [Compound 113], the pEC50 in assay [1] (setting [3]) is 6.41.
For `CC(C)(C)[C@H](NS(=O)(=O)c1sccc1Cl)C(=O)N1C[C@H]2[C@@H]([C@H]1C(=O)N[C@H](C#N)C[C@@H]1CCNC1=O)C2(C)C` [Compound 114], the pEC50 is 6.88 in assay [1] (setting [4]) and 7.17 in assay [1] (setting [3]).
With `Cc1ccc(S(=O)(=O)N[C@H](C(=O)N2C[C@H]3[C@@H]([C@H]2C(=O)N[C@H](C#N)C[C@@H]2CCNC2=O)C3(C)C)C(C)(C)C)s1` [Compound 118], the pEC50 in assay [1] (setting [3]) is 6.49.
With `CC(C)(C)[C@H](NS(=O)(=O)c1ccc(C2CC2)cc1)C(=O)N1C[C@H]2[C@@H]([C@H]1C(=O)N[C@H](C#N)C[C@@H]1CCNC1=O)C2(C)C` [Compound 121], the negative-log EC50 (pEC50) in assay [1] (setting [4]) is 7.18; in assay [1] (setting [3]), 7.25.
Consider `COc1ccsc1S(=O)(=O)N[C@H](C(=O)N1C[C@H]2[C@@H]([C@H]1C(=O)N[C@H](C#N)C[C@@H]1CCNC1=O)C2(C)C)C(C)(C)C` [Compound 127], for which the pEC50 in assay [1] (setting [3]) was 6.15.
For `CC(C)(C)[C@H](NC(=O)C(F)(F)C(F)(F)C(F)(F)F)C(=O)N1C[C@H]2[C@@H]([C@H]1C(=O)N[C@H](C#N)C[C@@H]1CCNC1=O)C2(C)C` [Compound 133], the pEC50 in assay [1] (setting [4]) was 6.80 and 6.79; in assay [1] (setting [3]), 6.91.
With `COc1ccc(S(=O)(=O)N(C)[C@H](C(=O)N2C[C@H]3[C@@H]([C@H]2C(=O)N[C@H](C#N)C[C@@H]2CCNC2=O)C3(C)C)C(C)(C)C)cc1` [Compound 137], the pEC50 in assay [1] (setting [3]) was 5.31.
